**Q.** Which melting point does the source give for `O=C(Cc1ccc(OCc2ccc(F)cc2)cc1)NC1(c2nn[nH]n2)Cc2ccc(-c3ccc(Cl)cc3)cc2C1` (stereo not shown) [Example B191, N-[5-(4-Chlorophenyl)-2-(2H-tetrazol-5-yl)-2,3-dihydro-1H-inden-2-yl]-2-{4-[(4-fluorobenzyl)oxy]phenyl}acetamide] here?
**A.** 108 to 110 °C

**Q.** Which melting point does the source give for `Nc1cccc(COc2ccc(CC(=O)NC3(C(=O)O)Cc4ccc(-c5ccc(Cl)cc5)cc4C3)cc2)c1` (stereo not shown) [Example B192, 2-[({4-[(3-Aminobenzyl)oxy]phenyl}acetyl)amino]-5-(4-chlorophenyl)indan-2-carboxylic acid] here?
**A.** 191 to 192 °C

**Q.** With `CS(=O)(=O)Nc1cccc(COc2ccc(CC(=O)NC3(C(=O)O)Cc4ccc(-c5ccc(Cl)cc5)cc4C3)cc2)c1` (stereo not shown) [Example B193, 5-(4-Chlorophenyl)-2-({[4-({3-[(methylsulfonyl)amino]benzyl)oxy)phenyl]acetyl}amino)indan-2-carboxylic acid] as the molecule, how does the melting point read?
**A.** 169 to 170 °C

**Q.** Which melting point does the source give for `Nc1ccccc1COc1ccc(CC(=O)NC2(C(=O)O)Cc3ccc(-c4ccc(Cl)cc4)cc3C2)cc1` (stereo not shown) [Example B194, 2-[({4-[(2-Aminobenzyl)oxy]phenyl}acetyl)amino]-5-(4-chlorophenyl)indan-2-carboxylic acid] here?
**A.** 149 to 150 °C

**Q.** With `Cc1c(C(=O)NC2(C(=O)O)Cc3cccc(Br)c3C2)oc2cc(-c3ccc(Cl)cc3)ccc12` (stereo not shown) [Example C113, 4-Bromo-2-({[6-(4-chlorophenyl)-3-methyl-1-benzofuran-2-yl]carbonyl}amino)indan-2-carboxylic acid] as the molecule, how does the melting point read?
**A.** 230 °C

**Q.** With `Cc1c(C(=O)NC2(C(=O)O)Cc3ccc(Br)cc3C2)oc2cc(-c3ccc(Cl)cc3)ccc12` (stereo not shown) [Example C114, 5-Bromo-2-({[6-(4-chlorophenyl)-3-methyl-1-benzofuran-2-yl]carbonyl}amino)indan-2-carboxylic acid] as the molecule, how does the melting point read?
**A.** 227 °C

**Q.** With `Cc1c(C(=O)N[C@H](Cc2ccc(OCc3ccccc3)cc2)C(=O)O)oc2cc(-c3ccc(Cl)cc3)ccc12` [Example C116, O-Benzyl-N-{[6-(4-chlorophenyl)-3-methyl-1-benzofuran-2-yl]carbonyl}-D-tyrosine] as the molecule, how does the melting point read?
**A.** 113 to 114 °C

**Q.** For `Cc1c(C(=O)N[C@@H](Cc2ccc(OCc3ccsc3)cc2)C(=O)O)oc2cc(-c3ccc(Cl)cc3)ccc12` [Example C118, N-{[6-(4-Chlorophenyl)-3-methyl-1-benzofuran-2-yl]carbonyl}-O-(3-thienylmethyl)-L-tyrosine], which melting point is on record?
**A.** 111 to 113 °C

**Q.** For `Cc1c(C(=O)N[C@@H](Cc2ccc(OCc3ccoc3)cc2)C(=O)O)oc2cc(-c3ccc(Cl)cc3)ccc12` [Example C119, N-{[6-(4-Chlorophenyl)-3-methyl-1-benzofuran-2-yl]carbonyl}-O-(3-furylmethyl)-L-tyrosine], which melting point is on record?
**A.** 108 to 110 °C

**Q.** Which melting point does the source give for `O=C(N[C@@H](Cc1ccc(OCc2ccoc2)cc1)C(=O)O)c1cc2ccc(-c3ccc(Cl)cc3)cc2s1` [Example C124, N-{[6-(4-Chlorophenyl)-1-benzothiophene-2-yl]carbonyl}-O-(3-furylmethyl) tyrosine] here?
**A.** 200 to 201 °C

**Q.** For `O=C(N[C@@H](Cc1ccc(OCc2ccoc2)cc1)C(=O)O)c1cc2cc(-c3ccc(Cl)cc3)ccc2s1` [Example C125, N-{[5-(4-Chlorophenyl)-1-benzothiophene-2-yl]carbonyl}-O-(3-furylmethyl) tyrosine], which melting point is on record?
**A.** 172 to 173 °C

**Q.** Which melting point does the source give for `O=C(N[C@@H](Cc1ccc(OCc2cccc(F)c2)cc1)C(=O)O)c1cc2cc(-c3ccc(Cl)cc3)ccc2s1` [Example C126, N-{[5-(4-Chlorophenyl)-1-benzothiophene-2-yl]carbonyl}-O-(3-fluorobenzyl) tyrosine] here?
**A.** 184 to 185 °C

**Q.** With `Cc1cccc(COc2ccc(C[C@H](NC(=O)c3cc4cc(-c5ccc(Cl)cc5)ccc4s3)C(=O)O)cc2)c1` [Example C127, N-{[5-(4-Chlorophenyl)-1-benzothiophene-2-yl]carbonyl}-O-(3-methylbenzyl)tyrosine] as the molecule, how does the melting point read?
**A.** 192 to 193 °C

**Q.** For `COc1cccc(COc2ccc(C[C@H](NC(=O)c3cc4cc(-c5ccc(Cl)cc5)ccc4s3)C(=O)O)cc2)c1` [Example C128, N-{[5-(4-Chlorophenyl)-1-benzothiophene-2-yl]carbonyl}-O-(3-methoxybenzyl)tyrosine], which melting point is on record?
**A.** 175 to 177 °C

**Q.** For `CC(C)Oc1ccc(-c2ccc3sc(C(=O)N[C@@H](Cc4ccc(OCc5ccc(F)cc5)cc4)C(=O)O)cc3c2)cc1` [Example C130, O-(4-Fluorobenzyl)-N-{[5-(4-isopropoxyphenyl)-1-benzothiophene-2-yl]carbonyl}tyrosine], which melting point is on record?
**A.** 204 to 205 °C

**Q.** With `Cc1ccc(COc2ccc(C[C@H](NC(=O)c3cc4cc(-c5ccc(Cl)cc5)ccc4s3)C(=O)O)cc2)cc1` [Example C134, N-{[5-(4-Chlorophenyl)-1-benzothiophene-2-yl]carbonyl}-O-(4-methylbenzyl)tyrosine] as the molecule, how does the melting point read?
**A.** 208 °C

**Q.** For `O=C(N[C@@H](Cc1ccc(OCc2ccc(Cl)cc2)cc1)C(=O)O)c1cc2cc(-c3ccc(Cl)cc3)ccc2s1` [Example C135, O-(4-Chlorobenzyl)-N-{[5-(4-chlorophenyl)-1-benzothiophene-2-yl]carbonyl}tyrosine], which melting point is on record?
**A.** 196 to 197 °C

**Q.** For `N#Cc1ccc(COc2ccc(C[C@H](NC(=O)c3cc4cc(-c5ccc(Cl)cc5)ccc4s3)C(=O)O)cc2)cc1` [Example C136, N-{[5-(4-Chlorophenyl)-1-benzothiophene-2-yl]carbonyl)-O-(4-cyanobenzyl)tyrosine], which melting point is on record?
**A.** 164 °C

**Q.** Which melting point does the source give for `CCc1ccc(COc2ccc(C[C@H](NC(=O)c3cc4cc(-c5ccc(Cl)cc5)ccc4s3)C(=O)O)cc2)cc1` [Example C137, N-{[5-(4-Chlorophenyl)-1-benzothiophene-2-yl]carbonyl}-O-(4-ethylbenzyl)tyrosine] here?
**A.** 205 °C

**Q.** For `O=C(N[C@@H](Cc1ccc(OCc2ccc(C(F)(F)F)cc2)cc1)C(=O)O)c1cc2cc(-c3ccc(Cl)cc3)ccc2s1` [Example C138, N-{[5-(4-Chlorophenyl)-1-benzothiophene-2-yl]carbonyl}-O-[4-(trifluoromethyl)benzyl]tyrosine], which melting point is on record?
**A.** 198 °C

**Q.** With `Cc1ccc(COc2ccc(C[C@H](NC(=O)c3cc4cc(C#Cc5ccccc5)ccc4s3)C(=O)O)cc2)cc1` [Example C140, O-(4-Methylbenzyl)-N-{[5-(phenylethynyl)-1-benzothiophene-2-yl]carbonyl}tyrosine] as the molecule, how does the melting point read?
**A.** 204 to 207 °C

**Q.** Which melting point does the source give for `O=C(NC(Cc1ccc(OCc2ccc(Cl)cc2)cc1)C(=O)O)c1cc2cc(C#Cc3ccccc3)ccc2s1` (stereo not shown) [Example C141, O-(4-Chlorolbenzyl)-N-{[5-(phenylethynyl)-1-benzothiophene-2-yl]carbonyl)tyrosine] here?
**A.** 216 to 221 °C

**Q.** Which melting point does the source give for `Nc1c(C(=O)NC(Cc2ccc(OCc3ccccc3)cc2)C(=O)O)oc2ccc(-c3ccc(Cl)cc3)cc12` (stereo not shown) [Example C149] here?
**A.** 250 °C

**Q.** For `Cc1c(C(=O)N[C@@H](Cc2ccc(OCc3ccoc3)cc2)C(=O)O)oc2ccc(-c3ccc(Cl)cc3)cc12` [Example C150, N-{[5-(4-Chlorophenyl)-3-methyl-1-benzofuran-2-yl]carbonyl}-O-(3-furylmethyl)tyrosine], which melting point is on record?
**A.** 196 to 197 °C

**Q.** For `O=C(N[C@@H](Cc1ccc(OCc2ccoc2)cc1)C(=O)O)c1cc2ccc(-c3ccc(Cl)cc3)cc2o1` [Example C151, N-{[6-(4-Chlorophenyl)-1-benzofuran-2-yl]carbonyl}-O-(3-furylmethyl)tyrosine], which melting point is on record?
**A.** 159 to 160 °C

**Q.** Which melting point does the source give for `O=C(N[C@@H](Cc1ccc(OCc2ccoc2)cc1)C(=O)O)c1cc2cc(-c3ccc(Cl)cc3)ccc2o1` [Example C152, N-{[5-(4-Chlorophenyl)-1-benzofuran-2-yl]carbonyl}-O-(3-furylmethyl)tyrosine] here?
**A.** 211 to 212 °C

**Q.** For `Cc1cccc(COc2ccc(C[C@H](NC(=O)c3cc4ccc(-c5ccc(Cl)cc5)cc4o3)C(=O)O)cc2)c1` [Example C154, N-{[6-(4-Chlorophenyl)-1-benzofuran-2-yl]carbonyl}-O-(3-methylbenzyl)tyrosine], which melting point is on record?
**A.** 157 to 158 °C

**Q.** Which melting point does the source give for `COc1cccc(COc2ccc(C[C@H](NC(=O)c3cc4ccc(-c5ccc(Cl)cc5)cc4o3)C(=O)O)cc2)c1` [Example C155, N-{[6-(4-Chlorophenyl)-1-benzofuran-2-yl]carbonyl}-O-(3-methoxybenzyl)tyrosine] here?
**A.** 150 to 151 °C

**Q.** With `Cc1c(C(=O)N[C@H](C(=O)O)c2ccc(OCc3ccccc3)cc2)oc2cc(-c3ccc(Cl)cc3)ccc12` [Example C156, (2S)-[4-(Benzyloxy)phenyl]({[6-(4-chlorophenyl)-3-methyl-1-benzofuran-2-yl]carbonyl}amino)acetic acid] as the molecule, how does the melting point read?
**A.** 178 °C

**Q.** With `Cc1ccc(COc2ccc(CC(NC(=O)c3cc4ccc(-c5ccc(Cl)cc5)cc4o3)C(=O)O)cc2)cc1` (stereo not shown) [Example C158] as the molecule, how does the melting point read?
**A.** 204 °C

**Q.** Which melting point does the source give for `O=C(N[C@@H](Cc1ccc(OCc2ccc(Cl)cc2)cc1)C(=O)O)c1cc2ccc(-c3ccc(Cl)cc3)cc2o1` [Example C159, O-(4-Chlorobenzyl)-N-{[6-(4-chlorophenyl)-1-benzofuran-2-yl]carbonyl}tyrosine] here?
**A.** 195 °C

**Q.** Which melting point does the source give for `N#Cc1ccc(COc2ccc(C[C@H](NC(=O)c3cc4ccc(-c5ccc(Cl)cc5)cc4o3)C(=O)O)cc2)cc1` [Example C160, N-{[6-(4-Chlorophenyl)-1-benzofuran-2-yl]carbonyl}-O-(4-cyanobenzyl)tyrosine] here?
**A.** 204 °C

**Q.** For `CCc1ccc(COc2ccc(C[C@H](NC(=O)c3cc4ccc(-c5ccc(Cl)cc5)cc4o3)C(=O)O)cc2)cc1` [Example C161, N-{[6-(4-Chlorophenyl)-1-benzofuran-2-yl]carbonyl)-O-(4-ethylbenzyl)tyrosine], which melting point is on record?
**A.** 194 °C

**Q.** With `O=C(NC(Cc1ccc(OCc2ccc(C(F)(F)F)cc2)cc1)C(=O)O)c1cc2ccc(-c3ccc(Cl)cc3)cc2o1` (stereo not shown) [Example C162] as the molecule, how does the melting point read?
**A.** 203 °C

**Q.** With `O=C(NC(Cc1ccc(OCc2ccc(F)cc2)cc1)C(=O)O)c1nc2ccc(-c3ccc(Cl)cc3)cc2[nH]1` (stereo not shown) [Example C168] as the molecule, how does the melting point read?
**A.** 258 to 259 °C

**Q.** Which melting point does the source give for `O=C(/C=C/c1cccc(-c2ccc(Cl)cc2)n1)NC(Cc1ccc(OCc2ccccc2)cc1)C(=O)O` (stereo not shown) [Example D3, O-Benzyl-N-{3-[6-(4-chlorophenyl)pyridin-2-yl]acryloyl}tyrosine] here?
**A.** 226 to 228 °C

**Q.** Which melting point does the source give for `O=C(/C=C/c1ccc(-c2ccc(Cl)cc2)o1)N[C@@H](Cc1ccc(OCc2ccccc2)cc1)C(=O)O` [Example D4, O-Benzyl-N-{(2E)-3-[5-(4-chlorophenyl)-2-furyl]propa-2-enoyl}tyrosine] here?
**A.** 224 to 225 °C

From patent publication US20100130737A1, “Regulating Agent of GPR34 Receptor Function” (TAKEDA PHARMACEUTICAL COMPANY LIMITED, priority 2005, published 2010)
